Measurements as given in patent US20130303509A1, “NAMPT INHIBITORS” (AbbVie Inc., priority 2012, published 2013).

Tested on: PC3 cells
Assay: NAMPT Cell Proliferation Assay
Type: cell-based
Settings: Homo sapiens, PC-3, 120 h, 5 days incubation, cell viability by Cell Titer Glo
Method in brief: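 Five-day CellTiter-Glo viability readout in PC3 cells grown in RPMI/10% heat-inactivated FBS. Compounds added after overnight attachment as a 10-fold dilution series, […]. Percent inhibition fitted to sigmoidal dose-response to derive IC50.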

SMILES	IC50 [nM]
CCCCCC(=O)N1CCC(c2ccc(NC(=O)[C@H]3CCN(c4cccnn4)C3)cc2)CC1 [Example 678, (3S)-N-[4-(1-hexanoylpiperidin-4-yl)phenyl]-1-(pyridazin-3-yl)pyrrolidine-3-carboxamide]	6.09
Cc1ccsc1C(=O)N1CCC(c2ccc(NC(=O)[C@H]3CCN(c4cccnn4)C3)cc2)CC1 [Example 679, (3S)-N-(4-{1-[(3-methylthiophen-2-yl)carbonyl]piperidin-4-yl}phenyl)-1-(pyridazin-3-yl)pyrrolidine-3-carboxamide]	0.6
CC(C)C(C)C(=O)N1CCC(c2ccc(NC(=O)[C@H]3CCN(c4cccnn4)C3)cc2)CC1 (stereo partly drawn) [Example 680, (3S)-N-{4-[1-(2,3-dimethylbutanoyl)piperidin-4-yl]phenyl}-1-(pyridazin-3-yl)pyrrolidine-3-carboxamide]	3.55
CCCC(=O)N1CCC(c2ccc(NC(=O)[C@H]3CCN(c4cccnn4)C3)cc2)CC1 [Example 681, (3S)-N-[4-(1-butanoylpiperidin-4-yl)phenyl]-1-(pyridazin-3-yl)pyrrolidine-3-carboxamide]	9.02
CCC(C)CC(=O)N1CCC(c2ccc(NC(=O)[C@H]3CCN(c4cccnn4)C3)cc2)CC1 (stereo partly drawn) [Example 682, (3S)-N-{4-[1-(3-methylpentanoyl)piperidin-4-yl]phenyl}-1-(pyridazin-3-yl)pyrrolidine-3-carboxamide]	2.73
Cc1cc(C)cc(CC(=O)N2CCC(c3ccc(NC(=O)[C@H]4CCN(c5cccnn5)C4)cc3)CC2)c1 [Example 683, (3S)-N-(4-{1-[(3,5-dimethylphenyl)acetyl]piperidin-4-yl}phenyl)-1-(pyridazin-3-yl)pyrrolidine-3-carboxamide]	9.02
O=C(Nc1ccc(C2CCN(C(=O)c3cc(Cl)cc(Cl)c3)CC2)cc1)[C@H]1CCN(c2cccnn2)C1 [Example 684, (3S)-N-{4-[1-(3,5-dichlorobenzoyl)piperidin-4-yl]phenyl}-1-(pyridazin-3-yl)pyrrolidine-3-carboxamide]	76.6
Cc1c(F)cccc1C(=O)N1CCC(c2ccc(NC(=O)[C@H]3CCN(c4cccnn4)C3)cc2)CC1 [Example 685, (3S)-N-{4-[1-(3-fluoro-2-methylbenzoyl)piperidin-4-yl]phenyl}-1-(pyridazin-3-yl)pyrrolidine-3-carboxamide]	8.28
O=C(Nc1ccc(C2CCN(C(=O)Cc3ccc(Cl)cc3)CC2)cc1)[C@H]1CCN(c2cccnn2)C1 [Example 686, (3S)-N-(4-{1-[(4-chlorophenyl)acetyl]piperidin-4-yl}phenyl)-1-(pyridazin-3-yl)pyrrolidine-3-carboxamide]	64.9
O=C(Nc1ccc(C2CCN(C(=O)c3ccoc3)CC2)cc1)[C@H]1CCN(c2cccnn2)C1 [Example 687, (3S)-N-{4-[1-(furan-3-ylcarbonyl)piperidin-4-yl]phenyl}-1-(pyridazin-3-yl)pyrrolidine-3-carboxamide]	6.11
Cc1ccc(C(=O)N2CCC(c3ccc(NC(=O)[C@H]4CCN(c5cccnn5)C4)cc3)CC2)cc1C [Example 688, (3S)-N-{4-[1-(3,4-dimethylbenzoyl)piperidin-4-yl]phenyl}-1-(pyridazin-3-yl)pyrrolidine-3-carboxamide]	9.4
O=C(Nc1ccc(C2CCN(C(=O)c3ccc(F)cc3)CC2)cc1)[C@H]1CCN(c2cccnn2)C1 [Example 689, (3S)-N-{4-[1-(4-fluorobenzoyl)piperidin-4-yl]phenyl}-1-(pyridazin-3-yl)pyrrolidine-3-carboxamide]	9.68
O=C(Nc1ccc(C2CCN(C(=O)c3cc(C(F)(F)F)ccc3Cl)CC2)cc1)[C@H]1CCN(c2cccnn2)C1 [Example 690, (3S)-N-(4-{1-[2-chloro-5-(trifluoromethyl)benzoyl]piperidin-4-yl}phenyl)-1-(pyridazin-3-yl)pyrrolidine-3-carboxamide]	3.14
CC(=O)N1CCC(c2ccc(NC(=O)[C@H]3CCN(c4cccnn4)C3)cc2)CC1 [Example 691, (3S)-N-[4-(1-acetylpiperidin-4-yl)phenyl]-1-(pyridazin-3-yl)pyrrolidine-3-carboxamide]	30
